The series is described as follows: Roller compaction processability observation and in-process data. To be noted: unformulated. The text has this: Formulations were manufactured at 100 g scale by roller compaction using the compositions as described in Table 17. The formulations were designed to evaluate the effect of formulation variables including drug loading, ratios of diluents and levels of other excipients on the processability, as shown in Table 17.
In the tables above, BD refers to Bulk Density, DT refers to Disintegration time, HR refers to Hausner ratio and TD refers to tapped density. Disintegration time is for a 0.5-inch ribbon. The plus signs in the table refer to the following observed characteristics: “+” is soft, “++” is medium hard, “+++” is hard, and “++++” is very hard.
To improve the flow properties of the sepiapterin composition of the invention, a dry granulation approach was selected. The manufacturing process included preblending, roller compaction followed by milling, final blending, and sachet filling. The batch analyses data from the selected manufacturing process yielded acceptable drug product within the specification limit. […]

Experimental findings from patent US20250041305A1, “PHARMACEUTICAL COMPOSITION OF SEPIAPTERIN” (PTC Therapeutics, Inc., priority 2021, published 2025) are described below.

Take `C[C@H](O)C(=O)C1=Nc2c(nc(N)[nH]c2=O)NC1` [sepiapterin]: the bulk density entry is on record as “low bulk density” and the flow characteristics entry was “poor flow characteristics”.
